IC50 data for 27 compounds are collected here from patent publication US9328099B2, “Cyanomethylpyrazole carboxamides as janus kinase inhibitors” (Merck Sharp & Dohme Corp., priority 2011, dated 2016).

The target of one experiment is JAK1 (Homo sapiens (Human), UniProt P23458). Nature of the experiment: Jak Biochemical HTRF Assay, JAK1. The following applies: HTRF biochemical assay, GST-tagged catalytic domain; top concentration tested […]; read-out: JAK1 IC50. From the text: (§1) Jak Biochemical HTRF Assay Protocol
Sequence of JAK1 (P23458 875-1153): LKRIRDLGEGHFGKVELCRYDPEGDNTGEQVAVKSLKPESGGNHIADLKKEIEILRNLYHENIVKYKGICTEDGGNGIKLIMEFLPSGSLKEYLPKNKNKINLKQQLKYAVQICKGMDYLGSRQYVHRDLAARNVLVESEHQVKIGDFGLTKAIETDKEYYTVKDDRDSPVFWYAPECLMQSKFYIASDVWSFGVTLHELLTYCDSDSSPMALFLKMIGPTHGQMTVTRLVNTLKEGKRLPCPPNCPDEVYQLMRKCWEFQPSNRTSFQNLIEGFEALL
(§2) Subsequent reagent additions employed an Agilent Bravo.

A further experiment deals with JAK2 (Homo sapiens (Human), UniProt O60674). Put plainly: Jak Biochemical HTRF Assay, JAK2. To be noted: HTRF biochemical assay, GST-tagged catalytic domain; top concentration tested […].
Sequence of JAK2 (O60674 849-1124): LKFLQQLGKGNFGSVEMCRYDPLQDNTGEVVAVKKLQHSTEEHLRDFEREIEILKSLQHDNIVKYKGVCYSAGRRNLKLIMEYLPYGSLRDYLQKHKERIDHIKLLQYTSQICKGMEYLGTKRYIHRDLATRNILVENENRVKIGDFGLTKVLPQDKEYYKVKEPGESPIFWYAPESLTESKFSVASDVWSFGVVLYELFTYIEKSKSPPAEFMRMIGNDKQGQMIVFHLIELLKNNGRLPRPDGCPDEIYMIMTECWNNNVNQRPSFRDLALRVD
From the text: as §1, §2
(In general: Time-resolved FRET reads energy transfer from a long-lived donor to a nearby acceptor.)

A value given as a limit tells only on which side of the number the result lay.

In the case of `CC(C)(C)OC(=O)N1CCC(CC#N)(n2cc(C(N)=O)c(Nc3cccc(-c4cccc(Cl)c4)c3)n2)CC1` [Example 15-8, tert-butyl 4-{4-carbamoyl-3-[(3′-chlorobiphenyl-3-yl)amino]-1H-pyrazol-1-yl}-4-(cyanomethyl)piperidine-1-carboxylate], the IC50 came to 161 nM at JAK1 and 1480 nM against JAK2.
`CC1(COC(=O)N2CCC(CC#N)(n3cc(C(N)=O)c(Nc4ccc(F)cc4)n3)CC2)CC1` [Example 30-8, (1-methylcyclopropyl)methyl 4-(4-carbamoyl-3-(4-fluorophenylamino)-1H-pyrazol-1-yl)-4-(cyanomethyl)piperidine-1-carboxylate]: the values for the 50% inhibitory concentration (IC50) at JAK1 and at JAK2 were 1 nM and 72 nM, respectively.
In the case of `N#CCC1(n2cc(C(N)=O)c(Nc3ccnc(F)c3)n2)CCN(Cc2cccnc2)CC1` [Example 22-2, 1-[4-(cyanomethyl)-1-(pyridin-3-ylmethyl)piperidin-4-yl]-3-[(2-fluoropyridin-4-yl)amino]-1H-pyrazole-4-carboxamide], the figures for the 50% inhibitory concentration (IC50) on JAK1 and against JAK2 were 0.2 nM and 5 nM, respectively.
With `N#CCC1(n2cc(C(N)=O)c(Nc3ccnc(F)c3)n2)CCN(Cc2cccc(F)c2)CC1` [Example 22-10, 1-[4-(cyanomethyl)-1-(3-fluorobenzyl)piperidin-4-yl]-3-[(2-fluoropyridin-4-yl)amino]-1H-pyrazole-4-carboxamide], the IC50 at JAK1 is 0.07 nM; against JAK2, 3 nM.
Consider `N#CCC1(n2cc(C(N)=O)c(Nc3ccc(F)cc3)n2)CCN(Cc2ccc3cc[nH]c3c2)CC1` [Example 22-56, 1-[4-(cyanomethyl)-1-(1H-indol-6-ylmethyl)piperidin-4-yl]-3-[(4-fluorophenyl)amino]-1H-pyrazole-4-carboxamide], for which the 50% inhibitory concentration (IC50) on JAK1 worked out at 2 nM; at JAK2 it was 46 nM.
The corresponding values for `N#CCC1(n2cc(C(N)=O)c(Nc3ccccc3)n2)CCN(C(=O)c2cc3ccccc3[nH]2)CC1` [Example 34-22, 1-[4-(cyanomethyl)-1-(1H-indol-2-ylcarbonyl)piperidin-4-yl]-3-(phenylamino)-1H-pyrazole-4-carboxamide] are 6 nM and 176 nM.
For the compound `N#CCC1(n2cc(C(N)=O)c(Nc3ccc(F)cc3)n2)CCN(c2cc(C(F)(F)F)ccn2)CC1` [Example 3-55, 1-{4-(cyanomethyl)-1-[4-(trifluoromethyl)pyridin-2-yl]piperidin-4-yl}-3-[(4-fluorophenyl)amino]-1H-pyrazole-4-carboxamide], the IC50 was 1 nM on JAK1 and 75 nM against JAK2.
For the compound `N#CCC1(n2cc(C(N)=O)c(Nc3ccccc3)n2)CCN(C(=O)CN2CCCC2=O)CC1` [Example 34-15, 1-{4-(cyanomethyl)-1-[(2-oxopyrrolidin-1-yl)acetyl]piperidin-4-yl}-3-(phenylamino)-1H-pyrazole-4-carboxamide], the half-inhibitory concentration (IC50) at JAK1 was 5 nM; on JAK2, 194 nM.
As to `CC(C)(O)C1CC(CN2CCC(CC#N)(n3cc(C(N)=O)c(Nc4ccnc(F)c4)n3)CC2)C1` (stereo not drawn) [Example 22-24, 1-[4-(cyanomethyl)-1-{[3-(1-hydroxy-1-methylethyl)cyclobutyl]methyl}piperidin-4-yl]-3-[(2-fluoropyridin-4-yl)amino]-1H-pyrazole-4-carboxamide], the IC50 was 100 nM on JAK1 and over 1500 nM against JAK2.
The corresponding values for `N#CCC1(n2cc(C(N)=O)c(Nc3ccnc(C4CC4)c3)n2)CCN(C(=O)OCC(F)F)CC1` [Example 9-41, 2,2-difluoroethyl 4-{4-carbamoyl-3-[(2-cyclopropylpyridin-4-yl)amino]-1H-pyrazol-1-yl}-4-(cyanomethyl)piperidine-1-carboxylate] are 6 nM and 201 nM.
Consider `CC(C)(C)OC(=O)N1CC(CC#N)(n2cc(C(N)=O)c(Nc3ccccc3)n2)C1` [Example 2-3, tert-butyl 3-[4-carbamoyl-3-(phenylamino)-1H-pyrazol-1-yl]-3-(cyanomethyl)azetidine-1-carboxylate], for which the half-inhibitory concentration (IC50) at JAK1 is 8 nM; against JAK2, 57 nM.
The corresponding values for `N#CCC1(n2cc(C(N)=O)c(Nc3ccccc3)n2)CCN(C(=O)c2ccc(Cl)cc2)CC1` [Example 34-19, 1-{1-[(4-chlorophenyl)carbonyl]-4-(cyanomethyl)piperidin-4-yl}-3-(phenylamino)-1H-pyrazole-4-carboxamide] are 11 nM and 184 nM.
Take `COc1ccc(C)cc1NC(=O)N1CC(CC#N)(n2cc(C(N)=O)c(Nc3ccccc3)n2)C1` [Example 38-25, 1-{3-(cyanomethyl)-1-[(2-methoxy-5-methylphenyl)carbamoyl]azetidin-3-yl}-3-(phenylamino)-1H-pyrazole-4-carboxamide]: the 50% inhibitory concentration (IC50) was 18 nM at JAK1 and 168 nM on JAK2.
With `CCc1ccccc1NC(=O)N1CC(CC#N)(n2cc(C(N)=O)c(Nc3ccccc3)n2)C1` [Example 38-39, 1-{3-(cyanomethyl)-1-[(2-ethylphenyl)carbamoyl]azetidin-3-yl}-3-(phenylamino)-1H-pyrazole-4-carboxamide], the IC50 on JAK1 amounted to 16 nM; against JAK2, 303 nM.
In the same order, the values of `Cc1ccc(N2CCC(CC#N)(n3cc(C(N)=O)c(Nc4ccc(F)cc4)n3)CC2)cn1` [Example 3-52, 1-[4-(cyanomethyl)-1-(6-methylpyridin-3-yl)piperidin-4-yl]-3-[(4-fluorophenyl)amino]-1H-pyrazole-4-carboxamide] are 0.4 nM and 8 nM.
Consider `N#CCC1(n2cc(C(N)=O)c(Nc3ccnc(F)c3)n2)CCC(NCc2cccc(F)c2)CC1` (stereo not drawn) [Example 41-19, Cis or trans 1-{1-(cyanomethyl)-4-[(3-fluorobenzyl)amino]cyclohexyl}-3-[(2-fluoropyridin-4-yl)amino]-1H-pyrazole-4-carboxamide], for which the IC50 on JAK1 came to 0.3 nM; against JAK2 it was 9 nM.
For the compound `N#CCC1(n2cc(C(N)=O)c(Nc3ccc(F)cc3)n2)CCN(c2ccnc3ccccc23)CC1` [Example 3-3, 1-[4-(cyanomethyl)-1-quinolin-4-ylpiperidin-4-yl]-3-[(4-fluorophenyl)amino]-1H-pyrazole-4-carboxamide], the 50% inhibitory concentration (IC50) on JAK1 came to 5 nM; against JAK2, 488 nM.
Consider `Cc1cc(Nc2nn(C3(CC#N)CCN(C(=O)OC(C)(C)C)CC3)cc2C(N)=O)ccn1` [Example 9-17, tent-butyl 4-{4-carbamoyl-3-[(2-methylpyridin-4-yl)amino]-1H-pyrazol-1-yl}-4-(cyanomethyl)piperidine-1-carboxylate], for which the IC50 at JAK1 came out at 15 nM; against JAK2, 133 nM.
In the case of `COCCOC(=O)N1CC(CC#N)(n2cc(C(N)=O)c(Nc3ccccc3)n2)C1` [Example 30-59, 2-methoxyethyl 3-[4-carbamoyl-3-(phenylamino)-1H-pyrazol-1-yl]-3-(cyanomethyl)azetidine-1-carboxylate], the IC50 at JAK1 was found to be 15 nM; against JAK2, 336 nM.
For `N#CCC1(n2cc(C(N)=O)c(Nc3ccc(S(=O)(=O)C(F)F)cc3)n2)CCC(Nc2ccccc2)CC1` (stereo not drawn) [Example 40-102, Cis or trans 1-[1-(cyanomethyl)-4-(phenylamino)cyclohexyl]-3-({4-[(difluoromethyl)sulfonyl]phenyl}amino)-1H-pyrazole-4-carboxamide], the IC50 on JAK1 is 0.05 nM; against JAK2 it was 1 nM.
On to `COCC(C)(C)OC(=O)N1CCC(CC#N)(n2cc(C(N)=O)c(Nc3ccc(F)cc3)n2)CC1` [Example 28, 2-Methoxy-1,1-dimethylethyl 4-{4-carbamoyl-3-[(4-fluorophenyl)amino]-1H-pyrazol-1-yl}-4-(cyanomethyl)piperidine-1-carboxylate], for which the IC50 at JAK1 amounted to 4 nM; on JAK2 it was 74 nM.
As for `N#CCC1(n2cc(C(N)=O)c(Nc3ccc(F)cc3)n2)CCC(N2CCC(O)CC2)CC1` (stereo not drawn) [Example 40-27, Cis or trans 1-[1-(cyanomethyl)-4-(4-hydroxypiperidin-1-yl)cyclohexyl]-3-[(4-fluorophenyl)amino]-1H-pyrazole-4-carboxamide], the IC50 at JAK1 worked out at 8 nM; against JAK2 it was 273 nM.
For `CN(CCS(C)(=O)=O)C1CCC(CC#N)(n2cc(C(N)=O)c(Nc3ccc(F)cc3)n2)CC1` (stereo not drawn) [Example 40-72, Cis or trans 1-[1-(cyanomethyl)-4-{methyl[2-(methylsulfonyl)ethyl]amino}cyclohexyl]-3-[(4-fluorophenyl)amino]-1H-pyrazole-4-carboxamide], the IC50 at JAK1 worked out at 1 nM; against JAK2, 37 nM.
In the same order, the values of `N#CCC1(n2cc(C(N)=O)c(Nc3ccccc3)n2)CN(C(=O)OCc2ccncc2)C1` [Example 30-66, pyridin-4-ylmethyl 3-[4-carbamoyl-3-(phenylamino)-1H-pyrazol-1-yl]-3-(cyanomethyl)azetidine-1-carboxylate] are 19 nM and 353 nM.
For the compound `N#CCC1(n2cc(C(N)=O)c(Nc3ccccc3)n2)CN(C(=O)OC2CCOC2)C1` (stereo not drawn) [Example 30-62, tetrahydrofuran-3-yl 3-[4-carbamoyl-3-(phenylamino)-1H-pyrazol-1-yl]-3-(cyanomethyl)azetidine-1-carboxylate], the 50% inhibitory concentration (IC50) on JAK1 turned out to be 5 nM; at JAK2, 102 nM.
For `CCS(=O)(=O)N1CCC(CC#N)(n2cc(C(N)=O)c(Nc3ccccc3)n2)CC1` [Example 37-3, 1-[4-(cyanomethyl)-1-(ethylsulfonyl)piperidin-4-yl]-3-(phenylamino)-1H-pyrazole-4-carboxamide], the IC50 at JAK1 is 1 nM; on JAK2 it was 12 nM.
On to `CCS(=O)(=O)N1CC(CC#N)(n2cc(C(N)=O)c(Nc3ccc(C(=O)N4CCS(=O)(=O)CC4)cc3)n2)C1` [Example 2-13, 1-[3-(cyanomethyl)-1-(ethylsulfonyl)azetidin-3-yl]-3-({4-[(1,1-dioxidothiomorpholin-4-yl)carbonyl]phenyl}amino)-1H-pyrazole-4-carboxamide], for which the 50% inhibitory concentration (IC50) is 27 nM at JAK1 and 38 nM at JAK2.

As a reminder, the IC50 is the concentration that inhibits the measured activity by half.
